The values that follow come from publication PMC12270203, “The ExoGAN generative AI framework enables extracellular vesicle-based immunotherapy” (Research Square, 2025).

The test system of one experiment is DMF5 TCR on J+ cells. Put plainly: J+ cell immunostimulation by peptide-engineered APC-EVs. The note with it: 2x10^9 particles, 24 hours. Format: cell-based, human.
In experiment [1] the test system is surface HLA*A02:01 on engineered K562 cells (K+). Put plainly: Flow cytometry peptide exchange / antigen presentation assay on K562 cells. Format: cell-based, human. The note with it: 1 uM AF555 N-terminal tagged peptide, 5 uM GL dipeptide, 1 uM brefeldin A, 3 hours, N=4.
Description: (K+) that only expresses the HLA*A02:01 allele (see Methods).
To validate ExoGAN at the cellular level, we used engineered K562[53] cells (K+) that only express surface HLA*A02:01. Native K562 cells (K−) and K+ cells were grown in complete 1640-RPMI (Gibco) media and harvested at 1 x 10^6 cells. Based on the method reported by Saini et al.[70], cells were incubated with 1 uM AF555 N-terminal tagged peptides with or without the 5 uM GL dipeptide in 1 uM brefeldin A for 3 hours in a 96 well plate. Total volume was 200 uL per well. Cells were washed 3x and subjected to flow cytometry for HLA*A02:01 affinity.
The target in experiment [2] is HLA-A*02:01 on engineered K562 cells (K+) and on extracellular vesicles isolated from them (human). Put plainly: nano flow cytometry on extracellular vesicles; EVs isolated from K+ cells incubated with 1 uM AF647-tagged peptide and 5 uM GL dipeptide, ultrafiltered (10k MWCO), stained with an AF488 HLA-A*02:01 antibody; NanoFCM.

Where no end group is shown, it is not given here.

Description for DMF5 TCR on J+ cells: We designed EVs derived from K+ cells with ExoGAN-designed peptides to precisely activate J+ cells expressing the melanoma TCR, DMF5.
100 uL of the isolate solution was combined with a 100 uL mastermix solution containing 5 uM GL dipeptide and 1 uM peptide. The 200 uL solution was incubated on a revolver at 4°c for 1.5 hours, following purification by ultrafiltration using a 10k MWCO column into a 30 uL solution. 10 uL was used for zeta potential, nano flow cytometry to assess peptides binding onto HLA-A*02:01 and 10 uL was used to assess CD69 expression and IL-2 secretion from J+ cells. To measure J+ functionality, 2x10^5 J+ cells in 190 uL were added to a 96 round bottom well plate, followed by adding the 10 uL isolate solution. 24 hours later, CD69 was evaluated with flow cytometry

As for FLIHSRNHD [Exo_1], in the experiment with DMF5 TCR on J+ cells (2x10^5 J+ cells, flow cytometry, N=4), the “CD69 median fluorescent intensity of J+ cells” value is “outperformed MART-1”. Further, the “IL-2 secretion of J+ cells” value in the experiment with DMF5 TCR on J+ cells (J+ cells, ELISA, Dunnett's test corrected one-way ANOVA, p <0.05) is listed as “significantly more”. Turning to CLICMDMVV [Exo_4], in experiment [1], the “peptide presentation on K+ cells (AF555 median fluorescent intensity)” value was “most potent peptide binders”. FLIDLAFLI [IEDB, reference compound]: the “peptide presentation on K+ cells (AF555 median fluorescent intensity)” value in experiment [1] is “most potent peptide binders”. For FLIHSRNHD (also: AF647-tagged, position not given here) [Exo_1, AF647-tagged], the percent peptide binding in experiment [2] came to 100%.

AAICTLLYD (also: AF647-tagged, position not given here) [Exo_3, AF647-tagged] yielded a percent peptide binding in experiment [2] of 100%.

Consider CLICMDMVV (cysteine pairing not given here; also: AF647-tagged, position not given here) [Exo_4, AF647-tagged], for which the percent peptide binding in experiment [2] was determined as 100%. As for HHMNMSMSK (also: AF647-tagged, position not given here) [Exo_2, AF647-tagged], the percent peptide binding in experiment [2] came to 100%.
